# Test results: patent US9593140B2, “Antibacterial tylosin derivatives and methods for their preparation” (Bayer Intellectual Property GmbH, priority 2011, dated 2017)
# Key:
# Assay type in all cases: cell-based
# [1] = system: Mannhemia hemolytica KB345; test: Paper disc assay, M. hemolytica KB345 (Tilmicosin-sensitivity strain); conditions: Table 2; for zone of inhibition at 1 mg/disc / zone of inhibition at 3 mg/disc / zone of inhibition at 10 mg/disc / zone of inhibition at 30 mg/disc / zone of inhibition at 100 mg/disc: 24 h; for zone of inhibition at 1 mg/disc: 1 mg/6 mm disk
# Procedure: (§1) (1) Antibacterial Activities Against Mannheimia and Pasteurella were Determined by the Following Steps:
# (§2) 1) M. hemolytica KB345 (Tilmicosin-sensitivity strain) and M. hemolytica KB346 (Tilmicosin-low sensitivity strain) were provided. KB 345 strain stored at −80° C. was seeded to BHIB agar medium (10 mL) by using Microbank beads (Pro-Lab) and platinum nail. After statically incubating the KB 345 strain for 24 hours at 37° C., it was seeded to maintaining slant BHIB agar medium (7 mL) by using platinum loop, further statically incubated for 24 hours at 37° C. to obtain slant. One platinum loop of KB 345 strain stored at the slant was inoculated into a large test tube charged with BHIB liquid medium (10 mL) and then incubated for 24 hours at 37° C. with shaking.
# (§3) 2) A paper disc (ADVANTEC, Φ:6 mm) was impregnated with a solution of test compound and dried under reduced pressure.
# (§4) 3) To a melted BHIB agar medium was inoculated 1% of the broth obtained from step 1) above to prepare a test plate. After the medium set, the paper disc prepared in step 2) above was put on the plate and it was incubated at 37° C.
# (§5) 4) After one day, the inhibition zone diameter and clarity (A to E) were determined.
# [2] = system: Mannhemia hemolytica KB346; test: Paper disc assay, M. hemolytica KB346 (Tilmicosin-low sensitivity strain); conditions: Table 3
# Procedure: as §1, §2, §3, §4, §5
# For KB346 strain, the same procedures were repeated.
# [3] = system: Bacillus subtilis ATCC6633; test: Paper disc assay, Bacillus subtilis (S)
# Procedure: (§6) (2) Antibacterial activities against other bacteria were determined with Micrococcus luteus ATCC9341 (1), Bacillus subtilis […] (s), Escherichia coli NIHJ (c), Xanthomonas campestris KB88 (X), Mucor racemosus IFO 4581 (Mu) and Candida albicans ATCC 64548 (Ca).
# (§7) Bacillus subtilis ATCC6633 was incubated in Davis synthetic medium and then the seed broth was combined with the medium in the ratio of 1:99 to obtain a test plate. Micrococcus luteus ATCC9341, Escherichia coli NIHJ and Xanthomonas campestris KB88 were respectively incubated in Nutrient agar medium and inoculated at 0.2%, 0.5% and 1.0%. Mucor racemosus IFO 4581 and Candida albicans ATCC 64548 were respectively incubated in GY agar medium and then inoculated at 0.3% and 0.2%.
# (§8) A paper disc (ADVANTEC, Φ:6 mm) was impregnated with a solution of test compound and dried under reduced pressure. The paper disc was put on the test plate and it was incubated for 24 hours at 37° C. After incubation, the inhibition zone diameter and clarity (A to E) were determined.
# [4] = system: Micrococcus luteus ATCC9341; test: Paper disc assay, Micrococcus luteus (l)
# Procedure: as §6, §7, §8
# [5] = system: Xanthomonas campestris KB88; test: Paper disc assay, Xanthomonas campestris (X)
# Procedure: as §6, §7, §8
Compound,Inhibition zone (mm) ([1]; 30 mg/6 mm disk),Inhibition zone (mm) ([2]; 30 mg/6 mm disk),Inhibition zone (mm) ([2]; 100 mg/6 mm disk),Inhibition zone (mm) ([1]; 10 mg/6 mm disk),Inhibition zone (mm) ([1]; 100 mg/6 mm disk),zone of inhibition at 1 mg/disc [1] [mm],zone of inhibition at 3 mg/disc ([1]; 3 mg/6 mm disk) [mm],zone of inhibition at 10 mg/disc ([1]; 10 mg/6 mm disk) [mm],zone of inhibition at 30 mg/disc ([1]; 30 mg/6 mm disk) [mm],zone of inhibition at 100 mg/disc ([1]; 100 mg/6 mm disk) [mm],Inhibition zone (mm) ([3]; 0.1 mg/6 mm disc),Inhibition zone (mm) ([3]; 1 mg/6 mm disc),Inhibition zone (mm) ([3]; 10 mg/6 mm disc),Inhibition zone (mm) ([4]; 0.1 mg/6 mm disc),Inhibition zone (mm) ([4]; 1 mg/6 mm disc),Inhibition zone (mm) ([4]; 10 mg/6 mm disc),Inhibition zone (mm) ([5]; 0.1 mg/6 mm disc),Inhibition zone (mm) ([5]; 1 mg/6 mm disc),Inhibition zone (mm) ([5]; 10 mg/6 mm disc),also measured
"CC[C@H]1OC(=O)C[C@@H](O)[C@H](C)[C@@H](O[C@@H]2O[C@H](C)[C@@H](O)[C@H](N(C)C)[C@H]2O)[C@@H](CC=O)C[C@@H](C)C(=O)/C=C/C(C)=C/[C@@H]1CO[C@@H]1O[C@H](C)[C@@H](O)[C@@H](OC)[C@H]1OC [YT6, Desmycosin]",10.5,17.5,21.0,–,–,–,–,–,–,–,–,–,–,–,–,–,–,–,–,Inhibition zone (mm) ([2]; 3 mg/6 mm disk): 8.5 mm; Inhibition zone (mm) ([2]; 10 mg/6 mm disk): 13.5 mm
"CC[C@H]1OC(=O)C[C@@H](O)[C@H](C)[C@@H](O[C@@H]2O[C@H](C)[C@@H](O)[C@H](N(C)C)[C@H]2O)[C@@H](CCCl)C[C@@H](C)C(=O)/C=C/C(C)=C/[C@@H]1CO[C@@H]1O[C@H](C)[C@@H](O)[C@@H](OC)[C@H]1OC [YT8, 20-chloro-20-deoxodesmycosin]",18.0,11.0,14.5,12.5,20.0,–,–,–,–,–,–,–,–,–,–,–,–,–,–,–
"CCC1OC(=O)CC(O)C(C)C(OC2OC(C)C(O)C(N(C)C)C2O)C(CCN=[N+]=[N-])CC(C)C(=O)C=CC(C)=CC1COC1OC(C)C(O)C(OC)C1OC (centres unmarked) [YT11, 20-azido-20-deoxodesmycosin]",16.0,–,11.0,13.0,18.0,–,–,–,–,–,–,–,–,–,–,–,–,–,–,Inhibition zone (mm) ([1]; 3 mg/6 mm disk): 10.0 mm
"CC[C@H]1OC(=O)C[C@@H](O)[C@H](C)[C@@H](O[C@@H]2OC(C)[C@@H](O)C(N(C)C)C2O)[C@@H](CCn2cc(-c3ccccn3)nn2)C[C@@H](C)C(=O)/C=C/C(C)=C/[C@@H]1CO[C@@H]1OC(C)[C@@H](O)C(OC)C1OC (some centres unmarked) [YT12, 20-(4-(pyridine-2-yl)-1H-1,2,3-triazol-1-yl)-20-deoxodesmycosin]",–,–,–,–,–,9,13,17,19,22,7,12.5,14,12,18.5,25,7,12.5,27,–
"CC[C@H]1OC(=O)C[C@@H](O)[C@H](C)[C@@H](O[C@@H]2OC(C)[C@@H](O)C(N(C)C)C2O)[C@@H](CCn2cc(-c3ccccc3)nn2)C[C@@H](C)C(=O)/C=C/C(C)=C/[C@@H]1CO[C@@H]1OC(C)[C@@H](O)C(OC)C1OC (some centres unmarked) [YT13, 20-(4-phenyl-1H-1,2,3-triazol-1-yl)-20-deoxodesmycosin]",–,–,–,–,–,11,15,16,18,21,9.5,12,15.5,15,21.5,27.5,8,17,23.5,–
"CC[C@H]1OC(=O)C[C@@H](O)[C@H](C)[C@@H](O[C@@H]2OC(C)[C@@H](O)C(N(C)C)C2O)[C@@H](CCn2cc(CCCCCl)nn2)C[C@@H](C)C(=O)/C=C/C(C)=C/[C@@H]1CO[C@@H]1OC(C)[C@@H](O)C(OC)C1OC (some centres unmarked) [YT19, 20-(4-(4-chlorobutyl)-1H-1,2,3-triazol-1-yl)-20-deoxodesmycosin]",–,–,–,–,–,–,14,16,18,21,7,10.5,15,13,19,26,7,14.5,23,–
